Key:
Assay in all cases: Kinase inhibitor library screening, PrestoBlue cell viability, 1 or 10 μM, 72 h
IGR37 cells (parental) = test system: IGR37 cells (parental)
Procedure: (§1) After 72 h of treatment, cell viability was assessed using the PrestoBlue Cell Viability Reagent (ThermoFisher Scientific). Measurements were performed with the CLARIOstar Monochromator microplate reader (BMG Labtech).
(§2) Kinase inhibitor library screening. […] Each cell line was treated in its sensitive form (parental), and also as 2 resistant derivatives, which were made resistant to either Vemurafenib (XP) or Dabrafenib (GP). Drugs were added at 2 different concentrations, 1 and 10 μM, for 72 h and cell viability was assessed using the PrestoBlue Cell Viability assay. Results are depicted as % viability compared to untreated cells. Each cell line was analyzed at least in duplicate. […] (XLSX 95 kb)

[1] = test system: 501Mel-GP cells (Dabrafenib-resistant); conditions: 72 h
Procedure: as §1, §2

A375 cells (parental) = test system: A375 cells (parental)
Procedure: as §1, §2

[2] = test system: IGR37-GP cells (Dabrafenib-resistant)
Procedure: as §1, §2

501Mel cells (parental) = conditions: 72 h
Procedure: as §1, §2

[3] = test system: A375-GP cells (Dabrafenib-resistant)
Procedure: as §1, §2

[4] = test system: A375-XP cells (Vemurafenib-resistant)
Procedure: as §1, §2

[5] = test system: 501Mel-XP cells (Vemurafenib-resistant); conditions: 72 h
Procedure: as §1, §2

[6] = test system: IGR37-XP cells (Vemurafenib-resistant)
Procedure: as §1, §2

CCCCCCCCCCCCc1ccc(S(=O)(=O)Nc2nncs2)cc1 [PHT-427]
cell viability (kinase inhibitor library screening) (IGR37 cells (parental); IGR37 Parental, 10μΜ, 72 h): 110.3%
cell viability (kinase inhibitor library screening) ([1]; 501Mel GP, 1μΜ): 115.7%
cell viability (kinase inhibitor library screening) ([1]; 501Mel GP, 10μΜ): 95.0%
cell viability (kinase inhibitor library screening) (A375 cells (parental); A375 Parental, 10μΜ, 72 h): 98.4%
cell viability (kinase inhibitor library screening) ([2]; IGR37 GP, 1μΜ, 72 h): 95.0%
cell viability (kinase inhibitor library screening) ([2]; IGR37 GP, 10μΜ, 72 h): 98.8%
cell viability (kinase inhibitor library screening) (501Mel cells (parental); 501Mel Parental, 1μΜ): 99.9%
cell viability (kinase inhibitor library screening) (501Mel cells (parental); 501Mel Parental, 10μΜ): 96.2%
cell viability (kinase inhibitor library screening) ([3]; A375 GP, 1μΜ, 72 h): 107.5%
cell viability (kinase inhibitor library screening) ([3]; A375 GP, 10μΜ, 72 h): 93.5%
cell viability (kinase inhibitor library screening) ([4]; A375 XP, 1μΜ, 72 h): 106.9%
cell viability (kinase inhibitor library screening) ([4]; A375 XP, 10μΜ, 72 h): 100.2%
cell viability (kinase inhibitor library screening) ([5]; 501Mel XP, 10μΜ): 85.4%
cell viability (kinase inhibitor library screening) ([6]; IGR37 XP, 10μΜ, 72 h): 79.8%

COc1cccc(-c2cc(=O)c3ccccc3o2)c1N [PD98059]
cell viability, IGR37 Parental, 10μΜ (IGR37 cells (parental); IGR37 Parental, 10μΜ, 72 h, in %): 81.4
cell viability, 501Mel GP, 1μΜ ([1]; 501Mel GP, 1μΜ, in %): 104.1
cell viability, 501Mel GP, 10μΜ ([1]; 501Mel GP, 10μΜ, in %): 84.1
cell viability, A375 Parental, 1μΜ (A375 cells (parental); A375 Parental, 1μΜ, 72 h, in %): 98.4
cell viability, IGR37 GP, 10μΜ ([2]; IGR37 GP, 10μΜ, 72 h): 88.7%
cell viability, IGR37 GP, 1μΜ ([2]; IGR37 GP, 1μΜ, 72 h, in %): 94.1
cell viability, 501Mel Parental, 1μΜ (501Mel cells (parental); 501Mel Parental, 1μΜ, in %): 98.8
cell viability, 501Mel Parental, 10μΜ (501Mel cells (parental); 501Mel Parental, 10μΜ, in %): 79.8
cell viability, A375 GP, 1μΜ ([3]; A375 GP, 1μΜ, 72 h, in %): 95.5
cell viability, A375 GP, 10μΜ ([3]; A375 GP, 10μΜ, 72 h, in %): 83.6
cell viability, A375 XP, 1μΜ ([4]; A375 XP, 1μΜ, 72 h, in %): 102.6
cell viability, A375 XP, 10μΜ ([4]; A375 XP, 10μΜ, 72 h, in %): 94.1
cell viability, 501Mel XP, 1μΜ ([5]; 501Mel XP, 1μΜ, in %): 97.3
cell viability, 501Mel XP, 10μΜ ([5]; 501Mel XP, 10μΜ, in %): 80.0
cell viability, IGR37 XP, 10μΜ ([6]; IGR37 XP, 10μΜ, 72 h): 61.9%

N#CCNC(=O)c1ccc(-c2ccnc(Nc3ccc(N4CCOCC4)cc3)n2)cc1 [Cyt387]
viability at 1 µM (IGR37 cells (parental); Homo sapiens, IGR-37, 72 h, read-out: cell viability, IGR37 Parental, 1μΜ): 103%
viability at 10 µM (IGR37 cells (parental); Homo sapiens, IGR-37, 72 h, read-out: cell viability, IGR37 Parental, 10μΜ): 86.1%
viability at 1 µM ([1]; Homo sapiens, read-out: cell viability, 501Mel GP, 1μΜ): 105%
viability at 10 µM ([1]; Homo sapiens, read-out: cell viability, 501Mel GP, 10μΜ): 50.6%
viability at 1 µM (A375 cells (parental); Homo sapiens, A-375, 72 h, read-out: cell viability, A375 Parental, 1μΜ): 99.6%
viability at 10 µM (A375 cells (parental); Homo sapiens, A-375, 72 h, read-out: cell viability, A375 Parental, 10μΜ): 48.4%
viability at 1 µM ([2]; Homo sapiens, IGR-37, 72 h, read-out: cell viability, IGR37 GP, 1μΜ): 94.2%
viability at 10 µM ([2]; Homo sapiens, IGR-37, 72 h, read-out: cell viability, IGR37 GP, 10μΜ): 25.5%
viability at 1 µM (501Mel cells (parental); Homo sapiens, read-out: cell viability, 501Mel Parental, 1μΜ): 101%
viability at 10 µM (501Mel cells (parental); Homo sapiens, read-out: cell viability, 501Mel Parental, 10μΜ): 60.8%
viability at 1 µM ([3]; Homo sapiens, A-375, 72 h, read-out: cell viability, A375 GP, 1μΜ): 94.4%
viability at 10 µM ([3]; Homo sapiens, A-375, 72 h, read-out: cell viability, A375 GP, 10μΜ): 43.9%
viability at 1 µM ([4]; Homo sapiens, A-375, 72 h, read-out: cell viability, A375 XP, 1μΜ): 95.8%
viability at 10 µM ([4]; Homo sapiens, A-375, 72 h, read-out: cell viability, A375 XP, 10μΜ): 64.7%
viability at 1 µM ([5]; Homo sapiens, read-out: cell viability, 501Mel XP, 1μΜ): 115%
viability at 10 µM ([5]; Homo sapiens, read-out: cell viability, 501Mel XP, 10μΜ): 35.8%
viability at 1 µM ([6]; Homo sapiens, IGR-37, 72 h, read-out: cell viability, IGR37 XP, 1μΜ): 106%
viability at 10 µM ([6]; Homo sapiens, IGR-37, 72 h, read-out: cell viability, IGR37 XP, 10μΜ): 11.7%

From PMC6364417, “Kinase inhibitor library screening identifies synergistic drug combinations effective in sensitive and resistant melanoma cells” (Journal of Experimental & Clinical Cancer Research : CR, 2019)
